{"source": "PubChem BioAssay (NCI)", "assay_in_all_cases": "DTP human tumour cell line panel, 48 h", "key": {"UO-31 renal": {"test_system": "UO-31 renal"}, "SK-MEL-28 melanoma": {"test_system": "SK-MEL-28 melanoma"}, "HT29 colon": {"test_system": "HT29 colon"}, "SF-539 CNS": {"test_system": "SF-539 CNS"}, "LOX IMVI melanoma": {"test_system": "LOX IMVI melanoma"}, "ACHN renal": {"test_system": "ACHN renal"}, "RXF 393 renal": {"test_system": "RXF 393 renal"}, "COLO 205 colon": {"test_system": "COLO 205 colon"}, "UACC-62 melanoma": {"test_system": "UACC-62 melanoma"}, "SN12C renal": {"test_system": "SN12C renal"}, "UACC-257 melanoma": {"test_system": "UACC-257 melanoma"}, "SK-MEL-2 melanoma": {"test_system": "SK-MEL-2 melanoma"}, "MOLT-4 leukemia": {"test_system": "MOLT-4 leukemia"}, "OVCAR-5 ovarian": {"test_system": "OVCAR-5 ovarian"}, "SF-295 CNS": {"test_system": "SF-295 CNS"}, "786-0 renal": {"test_system": "786-0 renal"}, "DU-145 prostate": {"test_system": "DU-145 prostate"}, "HCT-15 colon": {"test_system": "HCT-15 colon"}, "NCI-H226 lung": {"test_system": "NCI-H226 lung"}, "TK-10 renal": {"test_system": "TK-10 renal"}, "BT-549 breast": {"test_system": "BT-549 breast"}, "HCT-116 colon": {"test_system": "HCT-116 colon"}, "OVCAR-8 ovarian": {"test_system": "OVCAR-8 ovarian"}, "HS 578T breast": {"test_system": "HS 578T breast"}, "K-562 leukemia": {"test_system": "K-562 leukemia"}, "IGROV1 ovarian": {"test_system": "IGROV1 ovarian"}, "SW-620 colon": {"test_system": "SW-620 colon"}, "SNB-75 CNS": {"test_system": "SNB-75 CNS"}, "NCI-H460 lung": {"test_system": "NCI-H460 lung"}}, "note": "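Grown in 96-well plates, cells were treated for 48 hours with each compound at five concentrations. Insufficient inhibition: endpoint recorded as highest concentration tested. GI50 = concentration required for 50% inhibition of growth. TGI: total growth inhibition.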"}
{"smiles": "S=C(NCc1ccc2c(c1)OCO2)N1CCN(c2ncnc3c2oc2ccccc23)CC1", "values": [{"measurement": "GI50", "setting": "UO-31 renal", "value": "> 21.7", "unit": "µM"}, {"measurement": "TGI", "setting": "UO-31 renal", "value": "> 100", "unit": "µM"}, {"measurement": "GI50", "setting": "SK-MEL-28 melanoma", "value": "> 100", "unit": "µM"}, {"measurement": "TGI", "setting": "SK-MEL-28 melanoma", "value": "> 100", "unit": "µM"}, {"measurement": "GI50", "setting": "HT29 colon", "value": 18, "unit": "µM"}, {"measurement": "TGI", "setting": "HT29 colon", "value": "> 100", "unit": "µM"}, {"measurement": "GI50", "setting": "SF-539 CNS", "value": "> 100", "unit": "µM"}, {"measurement": "TGI", "setting": "SF-539 CNS", "value": "> 100", "unit": "µM"}, {"measurement": "GI50", "setting": "LOX IMVI melanoma", "value": "> 100", "unit": "µM"}, {"measurement": "TGI", "setting": "LOX IMVI melanoma", "value": "> 100", "unit": "µM"}, {"measurement": "GI50", "setting": "ACHN renal", "value": "> 63.3", "unit": "µM"}, {"measurement": "TGI", "setting": "ACHN renal", "value": "> 100", "unit": "µM"}, {"measurement": "GI50", "setting": "RXF 393 renal", "value": "> 100", "unit": "µM"}, {"measurement": "TGI", "setting": "RXF 393 renal", "value": "> 100", "unit": "µM"}, {"measurement": "GI50", "setting": "COLO 205 colon", "value": 66.1, "unit": "µM"}, {"measurement": "TGI", "setting": "COLO 205 colon", "value": "> 100", "unit": "µM"}, {"measurement": "GI50", "setting": "UACC-62 melanoma", "value": 14.1, "unit": "µM"}, {"measurement": "TGI", "setting": "UACC-62 melanoma", "value": "> 100", "unit": "µM"}, {"measurement": "GI50", "setting": "SN12C renal", "value": "> 100", "unit": "µM"}, {"measurement": "TGI", "setting": "SN12C renal", "value": "> 100", "unit": "µM"}, {"measurement": "GI50", "setting": "UACC-257 melanoma", "value": 1.71, "unit": "µM"}, {"measurement": "TGI", "setting": "UACC-257 melanoma", "value": "> 33.7", "unit": "µM"}, {"measurement": "GI50", "setting": "SK-MEL-2 melanoma", "value": 50.3, "unit": "µM"}, {"measurement": "TGI", "setting": "SK-MEL-2 melanoma", "value": "> 100", "unit": "µM"}, {"measurement": "GI50", "setting": "MOLT-4 leukemia", "value": 3.95, "unit": "µM"}, {"measurement": "TGI", "setting": "MOLT-4 leukemia", "value": "> 100", "unit": "µM"}, {"measurement": "GI50", "setting": "OVCAR-5 ovarian", "value": "> 100", "unit": "µM"}, {"measurement": "TGI", "setting": "OVCAR-5 ovarian", "value": "> 100", "unit": "µM"}, {"measurement": "GI50", "setting": "SF-295 CNS", "value": 5.38, "unit": "µM"}, {"measurement": "TGI", "setting": "SF-295 CNS", "value": "> 100", "unit": "µM"}, {"measurement": "GI50", "setting": "786-0 renal", "value": "> 100", "unit": "µM"}, {"measurement": "TGI", "setting": "786-0 renal", "value": "> 100", "unit": "µM"}, {"measurement": "GI50", "setting": "DU-145 prostate", "value": "> 100", "unit": "µM"}, {"measurement": "TGI", "setting": "DU-145 prostate", "value": "> 100", "unit": "µM"}, {"measurement": "GI50", "setting": "HCT-15 colon", "value": "> 100", "unit": "µM"}, {"measurement": "TGI", "setting": "HCT-15 colon", "value": "> 100", "unit": "µM"}, {"measurement": "GI50", "setting": "NCI-H226 lung", "value": 3.25, "unit": "µM"}, {"measurement": "TGI", "setting": "NCI-H226 lung", "value": "> 100", "unit": "µM"}, {"measurement": "GI50", "setting": "TK-10 renal", "value": 1.12, "unit": "µM"}, {"measurement": "GI50", "setting": "BT-549 breast", "value": 26.9, "unit": "µM"}, {"measurement": "TGI", "setting": "BT-549 breast", "value": "> 100", "unit": "µM"}, {"measurement": "GI50", "setting": "HCT-116 colon", "value": 3.68, "unit": "µM"}, {"measurement": "TGI", "setting": "HCT-116 colon", "value": "> 100", "unit": "µM"}, {"measurement": "GI50", "setting": "OVCAR-8 ovarian", "value": 5.43, "unit": "µM"}, {"measurement": "TGI", "setting": "OVCAR-8 ovarian", "value": "> 100", "unit": "µM"}, {"measurement": "GI50", "setting": "HS 578T breast", "value": "> 100", "unit": "µM"}, {"measurement": "TGI", "setting": "HS 578T breast", "value": "> 100", "unit": "µM"}, {"measurement": "GI50", "setting": "K-562 leukemia", "value": 3.6, "unit": "µM"}, {"measurement": "TGI", "setting": "K-562 leukemia", "value": "> 100", "unit": "µM"}, {"measurement": "GI50", "setting": "IGROV1 ovarian", "value": "> 100", "unit": "µM"}, {"measurement": "TGI", "setting": "IGROV1 ovarian", "value": "> 100", "unit": "µM"}, {"measurement": "GI50", "setting": "SW-620 colon", "value": "> 100", "unit": "µM"}, {"measurement": "TGI", "setting": "SW-620 colon", "value": "> 100", "unit": "µM"}, {"measurement": "GI50", "setting": "SNB-75 CNS", "value": "> 100", "unit": "µM"}, {"measurement": "TGI", "setting": "SNB-75 CNS", "value": "> 100", "unit": "µM"}, {"measurement": "GI50", "setting": "NCI-H460 lung", "value": 6.85, "unit": "µM"}, {"measurement": "TGI", "setting": "NCI-H460 lung", "value": "> 100", "unit": "µM"}]}
